Measurements reported in patent US9629830B2, “EphA4 inhibitors as neuroprotective agents” (The Hong Kong University of Science and Technology, priority 2013, dated 2017).
Entries after “also recorded” stand apart in the source; their conditions may differ.

How the values were obtained:
EphA4 (HT-22 cells) = target: T1, EphA4 (HT-22 cells) (Mus musculus, UniProt Q03137); assay: Cell-based binding of biotinylated ephrin-A1 to the surface of HT-22 cells; details: 10 min pre-incubation; Rhy 300 μM, KYL 100 μM (FIG. 10); biotinylated ephrin-A1 0.5 μg/mL
T1 construct: HT-22 cells, a cell line that expresses EphA4; endogenous in cells; host or cells: HT-22 cells
T1 sequence (Q03137 20-986): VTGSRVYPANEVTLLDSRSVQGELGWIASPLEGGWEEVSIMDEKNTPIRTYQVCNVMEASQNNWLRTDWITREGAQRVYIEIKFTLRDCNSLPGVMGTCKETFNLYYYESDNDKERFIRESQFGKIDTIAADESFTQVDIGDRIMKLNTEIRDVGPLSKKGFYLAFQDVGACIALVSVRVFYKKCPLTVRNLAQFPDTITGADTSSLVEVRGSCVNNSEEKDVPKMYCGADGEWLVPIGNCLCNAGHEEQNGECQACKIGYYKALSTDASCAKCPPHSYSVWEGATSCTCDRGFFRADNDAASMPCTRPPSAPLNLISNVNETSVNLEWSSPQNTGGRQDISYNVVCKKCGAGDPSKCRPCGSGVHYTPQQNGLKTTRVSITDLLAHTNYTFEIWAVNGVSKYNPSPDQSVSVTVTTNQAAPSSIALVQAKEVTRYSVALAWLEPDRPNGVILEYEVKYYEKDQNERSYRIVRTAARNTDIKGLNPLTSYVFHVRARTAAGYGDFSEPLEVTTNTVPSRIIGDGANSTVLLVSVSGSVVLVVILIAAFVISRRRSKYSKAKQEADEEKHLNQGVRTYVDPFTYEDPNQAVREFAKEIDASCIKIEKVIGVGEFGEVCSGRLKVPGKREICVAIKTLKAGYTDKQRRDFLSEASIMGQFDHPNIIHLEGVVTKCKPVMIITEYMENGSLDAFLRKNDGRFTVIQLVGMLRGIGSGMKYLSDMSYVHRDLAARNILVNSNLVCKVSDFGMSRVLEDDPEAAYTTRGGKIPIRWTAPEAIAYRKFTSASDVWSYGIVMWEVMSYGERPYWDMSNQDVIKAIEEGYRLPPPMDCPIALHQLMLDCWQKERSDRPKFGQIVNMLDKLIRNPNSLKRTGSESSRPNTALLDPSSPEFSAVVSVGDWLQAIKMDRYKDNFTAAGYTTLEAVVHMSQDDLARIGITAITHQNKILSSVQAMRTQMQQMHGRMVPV
Description: HT-22 cells were seeded on poly-D-lysine coverslips. […] The cells were then fixed with 4% paraformaldehyde and then immunostained with Alexa Fluor 488-conjugated Streptavidin antibody (Molecular Probes) for surfacing labeling of biotinylated ephrin-A1.

[1] = In vitro stability assay in mouse serum (UPLC-MS/MS); format: in vitro ADME; details: 3 μM, over the 360-min incubation period
[2] = target: T2, extracellular domain of EphA4 (Homo sapiens, UniProt P54764); assay: In vitro pull-down of recombinant EphA4-Fc with biotinylated Rhy on streptavidin beads; format: binding; details: western blot
T2 construct: purchased R&D Systems
T2 sequence (P54764 20-547 limits assumed): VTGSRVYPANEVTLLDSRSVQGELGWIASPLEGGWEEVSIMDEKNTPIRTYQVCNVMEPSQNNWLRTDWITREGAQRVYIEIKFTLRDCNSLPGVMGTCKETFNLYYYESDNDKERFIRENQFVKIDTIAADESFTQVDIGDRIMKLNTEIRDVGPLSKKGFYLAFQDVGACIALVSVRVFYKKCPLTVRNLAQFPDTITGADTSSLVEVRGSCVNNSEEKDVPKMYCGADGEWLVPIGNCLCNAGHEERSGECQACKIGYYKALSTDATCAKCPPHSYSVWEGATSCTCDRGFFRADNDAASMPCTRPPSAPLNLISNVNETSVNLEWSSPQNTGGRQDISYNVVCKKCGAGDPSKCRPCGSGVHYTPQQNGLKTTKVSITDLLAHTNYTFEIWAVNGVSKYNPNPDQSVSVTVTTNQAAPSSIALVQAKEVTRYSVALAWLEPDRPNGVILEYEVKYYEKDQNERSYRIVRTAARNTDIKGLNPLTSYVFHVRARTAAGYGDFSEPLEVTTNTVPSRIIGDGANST
Description: (§1) For the pull-down analysis, Bio-Rhy was bound to streptavidin magnetic beads for 1 h, the beads was then incubated with recombinant EphA4-Fc or EphB2-Fc in the presence of 0.5% BSA for 1 h. After incubation, the beads were washed 4 times with DPBS and the presence of Eph in the complex was determined by western blot analysis.

EphA4 = target: T3, EphA4 (Rattus norvegicus, UniProt D3ZZK3); assay: ephrin-A1-induced EphA4 tyrosine phosphorylation in cortical neurons (immunoprecipitation, western blot); format: cell-based; details: cortical neurons pretreated with compound, then ephrin-A1; western blot for P-Tyr
T3 construct: endogenous in cells; host or cells: primary rat cortical neurons (A5), primary rat hippocampal neurons (A7)
T3 sequence (D3ZZK3 20-986): as the sequence (Q03137 20-986) above, with S270T, K559Q, S874P counted along it
Description: Primary cortical and hippocampal neurons were prepared from embryonic day 18-19 rat embryos as described previously^24. Briefly, cortical neurons (6×10^6 per plate) were plated on 100-mm culture dishes coated with poly-D-lysine (12.5 μg/mL; Sigma). Rat hippocampal neurons were seeded on 18-mm coverslips coated with poly-D-lysine (50 μg/mL) at a density of 0.5×10^5/18-mm coverslip for immunocytochemical analysis, 0.1×10^5/18-mm coverslip for growth cone collapse assay, or 1×10^5 or 1.5×10^5/18-mm coverslip for mEPSC recording. Neurons were fed Neurobasal medium (Invitrogen) supplemented with 2% B27 (Invitrogen). Acute brain slices were prepared from P15-P17 Sprague-Dawley rats. Briefly, the rats were rapidly decapitated, and their brains were immersed in ice-cold artificial cerebrospinal fluid (ACSF). The hippocampus was dissected, and 300-μm-thick slices were prepared using a vibratome (Lieca). The slices were then transferred into an incubating chamber containing circulating ACSF equilibrated with 95% O2+5% CO2 and held at room temperature for at least 2 h for recovery prior to experiments^65.
For the immunoprecipitation assay, lysates were immunoprecipitated with the corresponding antibody for 2 h at 4° C. followed by incubation with protein G Sepharose for 1 h at 4° C.^24. […] EphA4 tyrosine phosphorylation was detected by western blot analysis using 4G10 antibody. […]

[3] = test system: glutamate-induced Ca2+ influx; details: subsequent study; cited from earlier work
[4] = test system: EphA4-dependent growth cone collapse in hippocampal neurons; assay: EphA4-dependent (ephrin-A1-stimulated) growth cone collapse assay; format: cell-based, rat; details: cultured hippocampal neurons
Description: Ephrin-A1-Fc was pre-clustered with goat anti-human Fc antibody (1:4.5)^24 and incubated at room temperature for 60 min before use. The growth cone collapse assay was performed in hippocampal neurons with ephrin-A1 0.1 μg/mL as described previously^61.
For EphA4 clustering, neurons were stained with anti-EphA4 and anti-Tau-1 antibodies. For the growth cone collapse assay, neurons were stained with Alexa Fluor 555-conjugated phalloidin (Molecular Probes) for filamentous actin and anti-Tau-1 antibody for axons. Collapsed growth cones were scored in a double-blinded manner. The experiments were repeated at least 3 times, and >50 neurons were analyzed for each experiment. Data are presented as mean±SEM.
To screen for small molecule EphA4 inhibitors, the inventors performed a molecular docking analysis using a small molecule library. […] Their ability in inhibiting EphA4 inhibiting the EphA4-dependent growth cone collapse using cultured hippocampal neurons was performed.

[5] = target: T4, extracellular domain of EphB2 (Homo sapiens, UniProt P29323); assay: In vitro pull-down of recombinant EphB2-Fc with biotinylated Rhy on streptavidin beads; format: binding; details: western blot
T4 construct: purchased R&D Systems
T4 sequence (P29323 19-543 limits assumed): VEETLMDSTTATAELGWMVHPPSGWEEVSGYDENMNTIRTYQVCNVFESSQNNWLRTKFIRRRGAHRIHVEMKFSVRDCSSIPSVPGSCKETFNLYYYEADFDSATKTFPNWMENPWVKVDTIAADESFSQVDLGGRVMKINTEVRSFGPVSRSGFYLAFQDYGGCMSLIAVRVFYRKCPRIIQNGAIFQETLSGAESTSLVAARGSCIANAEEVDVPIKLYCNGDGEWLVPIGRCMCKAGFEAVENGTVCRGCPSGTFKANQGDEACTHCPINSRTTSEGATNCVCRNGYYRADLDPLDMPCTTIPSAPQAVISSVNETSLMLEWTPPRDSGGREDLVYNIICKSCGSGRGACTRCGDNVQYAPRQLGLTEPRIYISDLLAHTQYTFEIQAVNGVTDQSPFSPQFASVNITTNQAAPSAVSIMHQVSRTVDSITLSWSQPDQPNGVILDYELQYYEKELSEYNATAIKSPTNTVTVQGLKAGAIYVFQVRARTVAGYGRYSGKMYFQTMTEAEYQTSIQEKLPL
Description: as §1

SMILES: CC[C@H]1CN2CC[C@]3(C(=O)Nc4ccccc43)[C@@H]2C[C@@H]1/C(=C\OC)C(=O)OC [Rhy, methyl (7β,16E,20α)-16-(methoxymethylene)-2-oxocorynoxan-17-oate]
- binding of ephrin-A1 to HT-22 cells (EphA4 (HT-22 cells)): reduced the binding of ephrin-A1 to HT-22 cells; also recorded: reduces the binding of ephrin-A1 to the surface of HT22 cells
- reduction of Rhy concentration in serum [1]: ~20%
- binding to the extracellular domain of EphA4 (pull-down, words) [2]: binds the extracellular domain of EphA4
- ephrin-A1-induced EphA4 tyrosine phosphorylation (EphA4): reduced the specific phosphorylation; also recorded: inhibited Eph-ephrin-A interaction and EphA4 tyrosine phosphorylation
- inhibition of glutamate-induced Ca2+ influx [3]: nor inhibits the glutamate-induced Ca^2+ influx
- ephrin-A1-stimulated growth cone collapse [4]: reduced; also recorded: inhibited ephrin-A1-stimulated growth cone collapse
- binding to the extracellular domain of EphB2 (pull-down, words) [5]: not that of EphB2
